Test results taken from patent US20220339143A1, “TAK-925 FOR USE IN TREATING NARCOLEPSY” (Takeda Pharmaceutical Company Limited, priority 2019, published 2022).
Read-outs that look alike come from different tables or passages of the source.

Test: Single dose PK in patients with narcolepsy (Cohorts 5, 6 and 7), plasma
Type: in vivo, human
Details: for AUC / clearance / concentration at 9 h / AUC(0-inf) / AUC(0-t) / Cmax / Tmax / Vd / concentration at 1 h / concentration at 2 h / concentration at 4 h / concentration at 6 h: human, plasma; for AUC: read-out: AUC24
Procedure: This study investigates (i) the safety and tolerability of Compound A (methyl (2R,3S)-3-((methylsulfonyl)amino)-2-(((cis-4-phenylcyclohexyl)oxy)methyl)piperidine-1-carboxylate) when a single dose given as a 9 hour continuous IV infusion is administered to healthy adults, healthy elderly subjects and patients with narcolepsy type 1 (NT1); (ii) the pharmacokinetics of Compound A when a single dose given as a 9 hour continuous IV infusion is administered to healthy adults, healthy elderly subjects and patients with narcolepsy type 1; and (iii) the pharmacodynamics (PD) effects of Compound A, primarily by evaluation of the sleep latency on MWT when a single dose given as a 9 hour continuous IV infusion is administered to patients with narcolepsy type 1.
In Part 2, NT1 patients received a single dose of Compound A or placebo administered as a continuous IV infusion over a 9-hour period during the day. A 40-minute Maintenance of Wakefulness Test (MWT) was conducted 4 times during the continuous IV infusion to assess effects on wakefulness in soporific conditions at 2, 4, 6 and 8 hours from start of infusion. Three cohorts of patients were enrolled (n=14 total).
Pharmacokinetics: Concentrations of Compound A in plasma, and CSF, and pharmacokinetics parameters.
On average, the time to reach the plateau appeared to be approximately 4 hours after the start of infusion. […] After switching off the IV infusion, Compound A plasma concentrations declined rapidly and in a biphasic manner with a mean terminal disposition phase t1/2z ranging approximately from 3.5 to 4.1 hours across the doses.

[1] = intravenous, 11.2 mg, Cmpd A 11.2 mg, Median, Cohort 5, 6, 7
[2] = intravenous, 44.8 mg, Cmpd A 44.8 mg, Geo Mean, Cohort 5, 6, 7
[3] = intravenous, 44.8 mg, Cmpd A 44.8 mg, Mean, Cohort 5, 6, 7
[4] = intravenous, 44.8 mg, Cmpd A 44.8 mg, Median, Cohort 5, 6, 7
[5] = iv, 5 mg, NT1, single 9 h IV infusion, read-out: Plasma concentration, Mean
[6] = iv, 5 mg, NT1, single 9 h IV infusion, read-out: Plasma concentration, Median
[7] = iv, 11.2 mg, NT1, single 9 h IV infusion, read-out: Plasma concentration, Mean
[8] = iv, 11.2 mg, NT1, single 9 h IV infusion, read-out: Plasma concentration, Median
[9] = iv, 44.8 mg, NT1, single 9 h IV infusion, read-out: Plasma concentration, Mean
[10] = iv, 44.8 mg, NT1, single 9 h IV infusion, read-out: Plasma concentration, Median

COC(=O)N1CCC[C@H](NS(C)(=O)=O)[C@@H]1CO[C@H]1CC[C@@H](c2ccccc2)CC1 [Compound A, methyl (2R,3S)-3-((methylsulfonyl)amino)-2-(((cis-4-phenylcyclohexyl)oxy)methyl)piperidine-1-carboxylate]
AUC (intravenous, 11.2 mg, Cmpd A 11.2 mg, Mean, Cohort 5, 6, 7): 199 ng·h/mL | clearance (intravenous, 11.2 mg, Cmpd A 11.2 mg, Mean, Cohort 5, 6, 7, read-out: CL (converted)): 932 mL/min | concentration at 9 h (intravenous, 11.2 mg, Cmpd A 11.2 mg, Mean, Cohort 5, 6, 7, read-out: Ceoi): 21.2 ng/mL | AUC(0-inf) [1]: 202 ng·h/mL | AUC(0-t) [1]: 200 ng·h/mL | Cmax [1]: 22.3 ng/mL | Tmax [1]: 9 h | AUC [1]: 200 ng·h/mL | clearance (intravenous, 11.2 mg, Cmpd A 11.2 mg, Median, Cohort 5, 6, 7, read-out: CL (converted)): 924 mL/min | concentration at 9 h (intravenous, 11.2 mg, Cmpd A 11.2 mg, Median, Cohort 5, 6, 7, read-out: Ceoi): 21.9 ng/mL | AUC(0-inf) [2]: 925 ng·h/mL | AUC(0-t) [2]: 911 ng·h/mL | Cmax [2]: 96.5 ng/mL | AUC [2]: 911 ng·h/mL | concentration at 9 h (intravenous, 44.8 mg, Cmpd A 44.8 mg, Geo Mean, Cohort 5, 6, 7, read-out: Ceoi): 94 ng/mL | AUC(0-inf) [3]: 959 ng·h/mL | AUC(0-t) [3]: 941 ng·h/mL | Cmax [3]: 98.3 ng/mL | Tmax [3]: 6.5 h | AUC [3]: 941 ng·h/mL | clearance (intravenous, 44.8 mg, Cmpd A 44.8 mg, Mean, Cohort 5, 6, 7, read-out: CL (converted)): 836 mL/min | concentration at 9 h (intravenous, 44.8 mg, Cmpd A 44.8 mg, Mean, Cohort 5, 6, 7, read-out: Ceoi): 96.2 ng/mL | Vd (intravenous, 44.8 mg, Cmpd A 44.8 mg, Mean, Cohort 5, 6, 7, read-out: Vss): 117 L | Vd (intravenous, 44.8 mg, Cmpd A 44.8 mg, Mean, Cohort 5, 6, 7, read-out: Vz): 281 L | AUC(0-inf) [4]: 930 ng·h/mL | AUC(0-t) [4]: 919 ng·h/mL | Cmax [4]: 97 ng/mL | Tmax [4]: 6.5 h | AUC [4]: 919 ng·h/mL | clearance (intravenous, 44.8 mg, Cmpd A 44.8 mg, Median, Cohort 5, 6, 7, read-out: CL (converted)): 809 mL/min | concentration at 9 h (intravenous, 44.8 mg, Cmpd A 44.8 mg, Median, Cohort 5, 6, 7, read-out: Ceoi): 95.2 ng/mL | Vd (intravenous, 44.8 mg, Cmpd A 44.8 mg, Median, Cohort 5, 6, 7, read-out: Vss): 116 L | Vd (intravenous, 44.8 mg, Cmpd A 44.8 mg, Median, Cohort 5, 6, 7, read-out: Vz): 282 L | concentration at 1 h [5]: 6.38 ng/mL | concentration at 1 h [6]: 6.25 ng/mL | concentration at 2 h [5]: 8.75 ng/mL | concentration at 2 h [6]: 9.15 ng/mL | concentration at 4 h [5]: 10.1 ng/mL | concentration at 4 h [6]: 9.62 ng/mL | concentration at 6 h [5]: 7.91 ng/mL | concentration at 6 h [6]: 7.97 ng/mL | concentration at 9 h (iv, 5 mg, 9 hr, NT1, single 9 h IV infusion, read-out: Plasma concentration, Mean): 9.64 ng/mL | concentration at 9 h (iv, 5 mg, 9 hr, NT1, single 9 h IV infusion, read-out: Plasma concentration, Median): 9.96 ng/mL | concentration at 1 h [7]: 14.4 ng/mL | concentration at 1 h [8]: 14.3 ng/mL | concentration at 2 h [7]: 17.3 ng/mL | concentration at 2 h [8]: 17.1 ng/mL | concentration at 4 h [7]: 21.5 ng/mL | concentration at 4 h [8]: 21.5 ng/mL | concentration at 6 h [7]: 19.5 ng/mL | concentration at 6 h [8]: 19.8 ng/mL | concentration at 9 h (iv, 11.2 mg, 9 hr, NT1, single 9 h IV infusion, read-out: Plasma concentration, Mean): 21.2 ng/mL | concentration at 9 h (iv, 11.2 mg, 9 hr, NT1, single 9 h IV infusion, read-out: Plasma concentration, Median): 21.9 ng/mL | concentration at 1 h [9]: 61.5 ng/mL | concentration at 1 h [10]: 56.5 ng/mL | concentration at 2 h [9]: 74.1 ng/mL | concentration at 2 h [10]: 76.3 ng/mL | concentration at 4 h [9]: 96 ng/mL | concentration at 4 h [10]: 92.9 ng/mL | concentration at 6 h [9]: 90 ng/mL | concentration at 6 h [10]: 88.3 ng/mL | concentration at 9 h (iv, 44.8 mg, 9 hr, NT1, single 9 h IV infusion, read-out: Plasma concentration, Mean): 96.2 ng/mL | concentration at 9 h (iv, 44.8 mg, 9 hr, NT1, single 9 h IV infusion, read-out: Plasma concentration, Median): 95.2 ng/mL | clearance (iv, IV administration, NT1 patients, read-out: mean estimates of plasma clearance): 833 to 950 mL/min | time to reach the plateau of plasma concentration after the start of infusion (single 9 h IV infusion, 5 to 44.8 mg, NT1 patients): approximately 4 hours
